Data reported in patent US20220064195A1, “SYNTHETIC I2 IMIDAZOLINE RECEPTOR LIGANDS FOR PREVENTION OR TREATMENT OF HUMAN BRAIN DISORDERS” (Universitat de Barcelona, priority 2018, published 2022).
“Also recorded” adds a separate entry of the source.

Columns and labels:
in vitro = settings: pig, PAMPA
Procedure: (§1) To evaluate the brain penetration of the different compounds, a parallel artificial membrane permeation assay for blood-brain barrier was used, following the method described by Di et al. (cf. Table 2). The in vitro permeability (Pe) of fourteen commercial drugs through lipid extract of porcine brain membrane together with the test compounds were determined. Commercial drugs and assayed compounds were tested using a mixture of PBS:EtOH (70:30).

I2-IR = experiment: Competition binding against the selective I2-IR radioligand [3H]-2-BFI in membranes from post-mortem human frontal cortex; settings: membranes from post-mortem human frontal cortex; radioligand [3H]-2-BFI
[1] = Dissolution of test compounds noted in the PAMPA-BBB assay (PBS:EtOH 70:30); assay type: physicochemical; parameters: key: *= poor dissolution
Procedure: as §1

[2] = predictive penetration in the CNS from PAMPA-BBB Pe
Procedure: as §1

SAMP8 mice = experiment: Novel Object Recognition Test (NORT) in SAMP8 mice
Procedure: (§2) Mice were placed in a 90°, two-arm, 25-cm-long, 20-cm-high, 5-cm-wide black maze. The walls could be lifted off for easy cleaning. Light intensity in the middle of the field was 30 lux. The objects to be discriminated were made of plastic and were chosen not to frighten the mice, and objects with parts that could be bitten were avoided. Before performing the test, the mice were individually habituated to the apparatus for 10 min during 3 days. On day 4, the animals were submitted to a 10-min acquisition trial (first trial), during which they were placed in the maze in the presence of two identical, novel objects (A+A or B+B) at the end of each arm. A 10-min retention trial (second trial) was carried out 2 h later. During this second trial, objects A and B were placed in the maze and the behavior of the mice was recorded with a camera. Time that the mice explored the new object (TN) and Time that the mice explored the Old object (TO) were measured. A Discrimination Index (DI) was defined as (TN−TO)/(TN+TO). In order to avoid object preference biases, A and B were counterbalanced so that one half of the animals in each experimental group were exposed first to A and then to B, whereas the remaining half saw B first and then A. The maze and the objects were cleaned with 70° ethanol after each test in order to eliminate olfactory cues.

Cxcl10 [3] = experiment: Gene expression of inflammatory marker Cxcl10 by real-time PCR in SAMP8 mice
Procedure: (§3) Total RNA isolation was carried out by means of Trizol reagent following manufacturer's instructions. […] Samples were also tested in an Agilent 2100B Bioanalyzer (Agilent Technologies) to determine the RNA integrity number. Reverse Transcription-Polymerase Chain Reaction (RT-PCR) was performed as follows: 2 μg of messenger RNA (mRNA) was reverse-transcribed using the High Capacity complementary DNA (cDNA) Reverse Transcription Kit (Applied Biosystems). Normalization of expression levels was performed with actin. SYBER Green, real-time PCR was performed in the Step One Plus Detection System (Applied Biosystems) employing the SYBR Green PCR Master Mix. Each reaction mixture contained 7.5 μL of cDNA, whose concentration was 2 μg, 0.75 μL of each primer (whose concentration was 100 nM), and 7.5 μL of SYBR Green PCR Master Mix (2×). Data were analyzed utilizing the comparative Cycle threshold (Ct) method (Fold Change), where the actin transcript level was used to normalize differences in sample loading and preparation. Each sample (n=4-5) was analyzed in triplicate, and results represented the n-fold difference of transcript levels among different samples.

II-6 [4] = experiment: Gene expression of inflammatory marker II-6 by real-time PCR in SAMP8 mice
Procedure: as §3

II-6 [5] = experiment: Gene expression of inflammatory marker II-6 by real-time PCR in 5XFAD mice; settings: 5×FAD
Procedure: as §3

Cxcl10 [6] = experiment: Gene expression of inflammatory marker Cxcl10 by real-time PCR in 5XFAD mice; settings: 5×FAD
Procedure: as §3

5XFAD mice = experiment: Novel Object Recognition Test (NORT) in 5XFAD mice
Procedure: as §2

Row | Structure (SMILES) | Papp (in vitro) | [^3H]-2-BFI I2 binding affinity (pKi) (I2-IR) | dissolution [1] | CNS Prediction [2] | also measured
1 | CCOP(=O)(OCC)[C@]1(c2ccccc2)N=C[C@H]2C(=O)N(c3cccc([N+](=O)[O-])c3)C(=O)[C@H]21 (racemic) [Compound I-28, Diethyl (1RS,3aSR,6aSR)-5-(3-nitrophenyl)-4,6-dioxo-1-phenyl-1,3a,4,5,6,6a-hexahydropyrrolo[3,4-c]pyrrole-1-phosphonate] | 4.5 ± 0.25 ×10⁻⁶ cm/s | 6.81 ± 0.27 | I-28* | CNS+/− (compounds of uncertain BBB permeation (CNS+/−): 5,179>Pe (10^−6 cm s^−1)>2,083) | –
2 | CCOP(=O)(OCC)[C@]1(c2ccccc2)N=C[C@H]2C(=O)N(c3ccc(Br)cc3)C(=O)[C@H]21 (racemic) [Compound I-47, Diethyl (1RS,3aSR,6aSR)-5-(4-bromophenyl)-4,6-dioxo-1-phenyl-1,3a,4,5,6,6a-hexahydropyrrolo[3,4-c]pyrrole-1-phosphonate] | 4.4 ± 0.4 ×10⁻⁶ cm/s | – | I-47* | CNS+/− (compounds of uncertain BBB permeation (CNS+/−): 5,179>Pe (10^−6 cm s^−1)>2,083) | –
3 | CCOP(=O)(OCC)[C@]1(c2ccccc2)N=C[C@H]2C(=O)N(c3cc([N+](=O)[O-])ccc3C)C(=O)[C@H]21 (racemic) [Compound I-50, Diethyl (1RS,3aSR,6aSR)-5-(2-methyl-5-nitrophenyl)-4,6-dioxo-1-phenyl-1,3a,4,5,6,6a-hexahydropyrrolo[3,4-c]pyrrole-1-phosphonate] | 1.4 ± 0.04 ×10⁻⁶ cm/s | – | I-50* | CNS− (compounds of low BBB permeation (CNS−): Pe (10^−6 cm s^−1)<2,083) | –
4 | CCOP(=O)(OCC)[C@]1(c2ccccc2)N=C[C@H]2C(=O)N(c3cccc(Cl)c3)C(=O)[C@H]21 (racemic) [Compound I-53, Diethyl (1RS,3aSR,6aSR)-5-(3-chlorophenyl)-4,6-dioxo-1-phenyl-1,3a,4,5,6,6a-hexahydropyrrolo[3,4-c]pyrrole-1-phosphonate] | 3.7 ± 0.1 ×10⁻⁶ cm/s | – | I-53* | CNS+/− (compounds of uncertain BBB permeation (CNS+/−): 5,179>Pe (10^−6 cm s^−1)>2,083) | –
5 | CCOP(=O)(OCC)[C@]1(c2ccccc2)N=C[C@H]2C(=O)N(Cc3ccccc3)C(=O)[C@H]21 (racemic) [Compound I-29, Diethyl (1RS,3aSR,6aSR)-5-benzyl-4,6-dioxo-1-phenyl-1,3a,4,5,6,6a-hexahydropyrrolo[3,4-c]pyrrole-1-phosphonate] | > 30 ×10⁻⁶ cm/s | 5.26 ± 0.22 | I-29* | CNS+ (compounds of high BBB permeation (CNS+): Pe (10^−6 cm s^−1)>5,179) | –
6 | O=C1[C@@H]2[C@@H](C=N[C@@]2(c2ccccc2)P(=O)(Oc2ccccc2)Oc2ccccc2)C(=O)N1c1ccccc1 (racemic) [Compound I-26, Diphenyl (1RS,3aSR,6aSR)-4,6-dioxo-1,5-diphenyl-1,3a,4,5,6,6a-hexahydropyrrolo[3,4-c]pyrrole-1-phosphonate] | 2.3 ± 0.04 ×10⁻⁶ cm/s | 5.86 ± 1.22 | I-26* | CNS+/− (compounds of uncertain BBB permeation (CNS+/−): 5,179>Pe (10^−6 cm s^−1)>2,083) | –
7 | CCOP(=O)(OCC)[C@]1(c2ccccc2)N=C[C@H]2C(=O)N(c3ccc(F)c(Cl)c3)C(=O)[C@H]21 (racemic) [Compound I-06, Diethyl (1RS,3aSR,6aSR)-5-(3-chloro-4-fluorophenyl)-4,6-dioxo-1-phenyl-1,3a,4,5,6,6a-hexahydropyrrolo[3,4-c]pyrrole-1-phosphonate] | 9.7 ± 0.7 ×10⁻⁶ cm/s | – | – | CNS+ (compounds of high BBB permeation (CNS+): Pe (10^−6 cm s^−1)>5,179) | cognitive / memory effect in NORT (in words) (SAMP8 mice; SAMP8 mice, treated group compared to the control): reduced memory deficits; also recorded: improves cognitive abilities; DI (−1, 1) NORT 2 h (SAMP8 mice; female SAMP8 mice at 12 months, 5 mg/kg, retention 2 h, mean ± SEM): 0.33 ± 0.071; DI (−1, 1) NORT 24 h (SAMP8 mice; female SAMP8 mice at 12 months, 5 mg/kg, retention 24 h): 0.273 ± 0.042; Cxcl10 marker of neuroinflammation, gene expression in brain (in words) (Cxcl10 [3]): reduced; II-6 marker of neuroinflammation, gene expression in brain (in words) (II-6 [4]): reduced; II-6 marker of neuroinflammation, gene expression in brain (in words) (II-6 [5]): reduced; Cxcl10 marker of neuroinflammation, gene expression in brain (in words) (Cxcl10 [6]): reduced; cognitive / memory effect in NORT (in words) (5XFAD mice; 5XFAD mice, treated group compared to the control): recovered DI levels of the Wild Type (Wt) control group; also recorded: improves cognitive abilities; DI (−1, 1) NORT 2 h (5XFAD mice; female 5XFAD mice at 6 months, 5 mg/kg, retention 2 h): 0.199 ± 0.053; DI (−1, 1) NORT 24 h (5XFAD mice; female 5XFAD mice at 6 months, 5 mg/kg, retention 24 h): 0.229 ± 0.051
